# Source: BindingDB's records for doi:10.7270/Q2MW2FMC (Nmmlsc, 2011)
# pEC50: −log10 of the molar value.
# Molecular target: T1, Ammonium transporter MEP2 (Saccharomyces cerevisiae (strain ATCC 204508 / S288c), UniProt P41948)
# T1 sequence (P41948 whole entry): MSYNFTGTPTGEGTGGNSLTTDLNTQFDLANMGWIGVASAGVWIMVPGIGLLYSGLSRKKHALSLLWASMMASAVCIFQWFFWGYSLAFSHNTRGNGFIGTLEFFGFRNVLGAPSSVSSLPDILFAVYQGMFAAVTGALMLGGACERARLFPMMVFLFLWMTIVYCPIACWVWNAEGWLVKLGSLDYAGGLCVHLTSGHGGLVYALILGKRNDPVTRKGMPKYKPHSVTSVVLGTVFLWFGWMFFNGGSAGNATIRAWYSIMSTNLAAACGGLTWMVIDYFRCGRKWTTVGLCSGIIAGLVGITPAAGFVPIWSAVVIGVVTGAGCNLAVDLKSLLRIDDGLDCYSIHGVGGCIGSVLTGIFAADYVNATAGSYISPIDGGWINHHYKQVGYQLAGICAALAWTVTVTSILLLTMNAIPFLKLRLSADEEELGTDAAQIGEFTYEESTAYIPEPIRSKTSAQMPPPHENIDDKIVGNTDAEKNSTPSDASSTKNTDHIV
# Assay: compound effects on MEP2-GFP, TOR pathway – S. cerevisiae, multiplex GFP fusions, cherry pick 3, SAR follow-up (AID 488812)
# Conditions: inactive by the depositor's call
row,SMILES,pEC50
1,CCOC(=O)CS(=O)(=O)c1nc(-c2ccccc2)cc(C(F)(F)F)n1 [2-[4-phenyl-6-(trifluoromethyl)pyrimidin-2-yl]sulfonylacetic acid ethyl ester],4.17
2,Oc1c(Cl)cc(Cl)c2cccnc12 [AS-229],1.44
3,Nc1ncnc(Nc2cc(Cl)cc(Cl)c2)c1[N+](=O)[O-] [MLS000581561],4.13
